Measurements published in article PMC12373499 (Nature Metabolism, 2025).
Where “and” joins values, the source holds several entries; their conditions need not be identical. Equal values may be shown once. Read-outs that look alike come from different tables or passages of the source. *1 amine or outer side, *2 acyl side, *3 side chain or, on linkers, in order; H or OH if unused. Where a SMILES comes first, the peptide text is derived from it. Side-chain parts run from the residue outwards. [ ]: non-standard residue; d: D form. The star is where a group is joined. X1 = CN1C(=CC=CC=CC2=[N+](CCCCCC(=O)NCCN3C(=O)CC(*)C3=O)c3ccccc3C2(C)C)C(C)(C)c2ccccc21; X2 = CN1C(=CC=CC2=[N+](CCCCCC(=O)NCCN3C(=O)CC(*)C3=O)c3ccccc3C2(C)C)C(C)(C)c2ccccc21; C20 diacid = O=C(O)CCCCCCCCCCCCCCCCCCC(=O)*; γGlu = O=C(O)[C@H](CCC(=O)[*:2])N[*:1]; AEEA = NCCOCCOCC(=O)O; Aib = CC(C)(N)C(=O)O

Experiments:
mouse islets = assay: Colocalization (Manders' coefficient) of probes in mouse islets; type: cell-based; conditions: WT islets live, TzCy3 500nM + LUX645 100nM
Experimental: (§1) Probe labelling was analysed using corrected total cell fluorescence, which is integrated density − (area of selected cell × mean fluorescence of background readings)[52],[53]. Colocalization was determined using Manders’ coefficient, which calculates the proportion of pixels in one channel that also show intensity from both channels. Full width at half maximum was used to analyse labelling patterns at the membrane versus cytoplasm. All analyses were performed in ImageJ (NIH), with brightness and contrast linearly adjusted across the entire image for presentation purposes and applied equally between all states under examination.

GLP1R^KO/KO islets = assay: Probe labelling of GLP1R^KO/KO islets; type: cell-based, mouse; conditions: for CTCF values of daLUXendin544: individual values
Experimental: Mice were humanely killed using a schedule-1 method, and the common bile duct was injected with Serva NB8 (1 mg ml^−1) collagenase. The inflated pancreas was dissected, and islets were isolated using Histopaque-1119 and 1083 (Sigma-Aldrich) gradients and cultured at 37 °C, 5% CO2 in RPMI supplemented with 10% FBS (Gibco), 100 units per ml penicillin and 100 μg ml^−1 streptomycin. Islets were used up to 4 days after isolation.
as §1

mGIPR = target: T1, mGIPR (Mus musculus, UniProt Q0P543); assay: HTRF cAMP assay in transiently transfected AD293 cells; type: cell-based; conditions: based upon cAMP assays and binding affinity
T1 construct: expressed in transfected cells; host or cells: AD293 cells, transient transfection (Lipofectamine 2000)
T1 sequence (Q0P543 19-460): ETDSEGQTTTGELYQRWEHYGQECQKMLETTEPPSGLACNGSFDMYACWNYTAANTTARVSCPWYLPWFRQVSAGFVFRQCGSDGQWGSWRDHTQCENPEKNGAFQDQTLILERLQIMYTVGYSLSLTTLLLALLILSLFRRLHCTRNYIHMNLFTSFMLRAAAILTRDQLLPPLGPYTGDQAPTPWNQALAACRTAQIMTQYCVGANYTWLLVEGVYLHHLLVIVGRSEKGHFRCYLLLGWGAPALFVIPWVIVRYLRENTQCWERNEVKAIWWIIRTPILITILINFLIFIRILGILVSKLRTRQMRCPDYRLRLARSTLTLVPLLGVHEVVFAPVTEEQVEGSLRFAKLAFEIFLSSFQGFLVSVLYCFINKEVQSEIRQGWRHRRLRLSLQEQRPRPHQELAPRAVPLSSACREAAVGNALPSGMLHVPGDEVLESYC
Experimental: AD293 cells (RRID:CVCL_9804) were transiently transfected 24 h before the assay in six-well plates with plasmids encoding wild-type hGLP1R, mGLP1R, hGIPR or mGIPR using Lipofectamine 2000. AD293 cells were authenticated at source using STR profiling. Cells were detached and treated with a range of agonist concentrations in serum-free DMEM + 0.1% BSA for 30 min at 37 °C in 96-well plates, followed by the addition of lysis buffer 2 (Cisbio) at a 1:2 ratio. Lysates were further diluted 1:10 to avoid spectral interference from the higher concentrations of fluorescent ligands in the HTRF assay, and the concentration of cAMP was determined after the addition of cAMP Dynamic detection reagents (Cisbio).

[1] = target: Nluc-tagged human GIPR (human) (UniProt P48546); assay: FRET or BRET
[2] = target: Nluc-tagged human GLP1R (human) (UniProt P43220); assay: FRET or BRET
[3] = target: human GIPR (Nluc-GIPR) (human) (UniProt P48546); assay: FRET or BRET; NanoBRET saturation binding on HEK293T cells transiently expressing Nluc-GLP1R or Nluc-GIPR; PBS with 0.1% BSA and 0.01% NanoGlo; daLUXendin added over a range of concentrations, without or with 1 uM GIP and 1 uM Exendin-9 to determine specific binding; fit 'One Site - Specific Binding'
[4] = target: human GLP1R (Nluc-GLP1R) (human) (UniProt P43220); assay: as above
[5] = target: human GIPR (Nluc-GIPR) (human) (UniProt P48546); assay: as above; remark: listed apart in the source
[6] = target: human GLP1R (Nluc-GLP1R) (human) (UniProt P43220); assay: as above; remark: listed apart in the source
Nluc–GIPR (hGIPR) = target: T2, Nluc–GIPR (hGIPR) (Homo sapiens, UniProt P48546); assay: NanoBRET saturation binding assay, HEK293T cells
T2 construct: expressed in transfected cells; host or cells: HEK293T cells, transient expression
T2 sequence (P48546 22-466): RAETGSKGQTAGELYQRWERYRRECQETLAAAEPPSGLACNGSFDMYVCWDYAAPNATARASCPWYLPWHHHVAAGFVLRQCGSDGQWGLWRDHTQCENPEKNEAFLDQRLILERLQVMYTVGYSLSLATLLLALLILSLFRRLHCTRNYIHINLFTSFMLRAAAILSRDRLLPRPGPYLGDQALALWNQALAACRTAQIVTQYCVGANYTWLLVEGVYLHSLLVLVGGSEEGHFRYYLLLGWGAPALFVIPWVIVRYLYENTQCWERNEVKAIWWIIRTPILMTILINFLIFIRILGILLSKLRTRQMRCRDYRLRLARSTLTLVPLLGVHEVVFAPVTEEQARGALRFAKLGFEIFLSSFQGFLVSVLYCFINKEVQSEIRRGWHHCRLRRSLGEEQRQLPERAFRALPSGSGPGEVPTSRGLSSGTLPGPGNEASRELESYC
Experimental: (§2) HEK293T cells (RRID:CVCL_0063) were cultured in DMEM/F12 GlutaMAX (ThermoFisher), supplemented with 10% FBS and 1% antibiotic-antimycotic solution and cultured at 37 °C, 5% CO2. HEK293T cells were authenticated at source using STR profiling. […] Media was then removed and the cells were incubated in PBS supplemented with 0.1% BSA and 0.01% NanoGlo (Promega). […] Plates were read using a PheraSTAR microplate reader, using the NanoBRET filter module. BRET ratios (λacceptor/λdonor) were calculated, and saturation data fit using the ‘One Site – Specific Binding’ equation of GraphPad Prism 10. Competition binding was fit using the ‘One Site – Fit Ki’ equation.

Nluc–GLP1R (hGLP1R) = target: T3, Nluc–GLP1R (hGLP1R) (Homo sapiens, UniProt P43220); assay: NanoBRET saturation binding assay, HEK293T cells
T3 construct: expressed in transfected cells; host or cells: HEK293T cells, transient expression
Experimental: as §2

Sequence of human GLP1R (Nluc-GLP1R) (human) (P43220 24-463): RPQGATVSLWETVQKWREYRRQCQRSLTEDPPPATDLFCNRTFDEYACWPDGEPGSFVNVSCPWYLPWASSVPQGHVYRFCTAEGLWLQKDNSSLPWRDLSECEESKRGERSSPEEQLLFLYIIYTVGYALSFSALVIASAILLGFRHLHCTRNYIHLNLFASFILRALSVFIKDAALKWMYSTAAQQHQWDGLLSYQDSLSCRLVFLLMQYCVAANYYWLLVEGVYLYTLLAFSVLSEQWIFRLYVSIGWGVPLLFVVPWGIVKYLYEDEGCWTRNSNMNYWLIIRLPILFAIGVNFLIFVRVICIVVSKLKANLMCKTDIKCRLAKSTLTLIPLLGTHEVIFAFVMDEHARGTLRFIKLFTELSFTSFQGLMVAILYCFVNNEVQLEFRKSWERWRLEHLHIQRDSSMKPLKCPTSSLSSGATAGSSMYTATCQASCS
Sequence of Nluc-tagged human GLP1R (human) (P43220 24-463): as above
T3 sequence (P43220 24-463): as above

CC[C@H](C)[C@H](NC(=O)[C@H](CC(C)C)NC(=O)[C@H](Cc1c[nH]c2ccccc12)NC(=O)[C@H](CCC(N)=O)NC(=O)[C@@H](NC(=O)[C@H](Cc1ccccc1)NC(=O)[C@H](C)NC(=O)[C@H](CCCCN)NC(=O)[C@H](CCC(N)=O)NC(=O)[C@H](C)NC(=O)[C@@H](NC(=O)[C@H](CCCCN)NC(=O)[C@H](CC(=O)O)NC(=O)[C@H](CC(C)C)NC(=O)C(C)(C)NC(=O)[C@@H](NC(=O)[C@H](CO)NC(=O)[C@H](Cc1ccc(O)cc1)NC(=O)[C@H](CC(=O)O)NC(=O)[C@H](CO)NC(=O)[C@@H](NC(=O)[C@H](Cc1ccccc1)NC(=O)[C@@H](NC(=O)CNC(=O)[C@H](CCC(=O)O)NC(=O)C(C)(C)NC(=O)[C@@H](N)Cc1ccc(O)cc1)[C@@H](C)O)[C@@H](C)O)[C@@H](C)CC)[C@@H](C)CC)C(C)C)C(=O)N[C@@H](C)C(=O)NCC(=O)NCC(=O)N1CCC[C@H]1C(=O)N[C@@H](CO)C(=O)N[C@@H](CO)C(=O)NCC(=O)N[C@@H](C)C(=O)N1CCC[C@H]1C(=O)N1CCC[C@H]1C(=O)N1CCC[C@H]1C(=O)N[C@@H](CSC1CC(=O)N(CCNC(=O)CCCCC[N+]2=C(C=CC=C3N(C)c4ccccc4C3(C)C)C(C)(C)c3ccccc32)C1=O)C(N)=O (stereo partly drawn) [daLUXendin544] (H-Y[Aib]EGTFTSDYSI[Aib]LDKIAQKAFVQWLIAGGPSSGAPPPC(X2)-NH2)
M1, daLUXendin544 vs LUXendin645 (mouse islets; image 1): 0.917
M2, daLUXendin544 vs LUXendin645 (mouse islets; image 1): 0.994
Manders' R, daLUXendin544 vs LUXendin645 (mouse islets; image 1): 0.852
Pearson's, daLUXendin544 vs LUXendin645 (mouse islets; image 1): 0.83
M1, daLUXendin544 vs LUXendin645 (mouse islets; image 2): 0.927
M2, daLUXendin544 vs LUXendin645 (mouse islets; image 2): 0.996
Manders' R, daLUXendin544 vs LUXendin645 (mouse islets; image 2): 0.744
Pearson's, daLUXendin544 vs LUXendin645 (mouse islets; image 2): 0.679
M1, daLUXendin544 vs LUXendin645 (mouse islets; image 3): 0.956
M2, daLUXendin544 vs LUXendin645 (mouse islets; image 3): 0.995
Manders' R, daLUXendin544 vs LUXendin645 (mouse islets; image 3): 0.727
Pearson's, daLUXendin544 vs LUXendin645 (mouse islets; image 3): 0.616
CTCF values of daLUXendin544 (GLP1R^KO/KO islets; GLP1R-/- + GIP): 466750 and 425691 and 412346 and 398972 and 803260 and 1574894 and 1388527 and 1122278 and 848564 and 323100 and 555998 and 554147 and 545690
CTCF values of daLUXendin544 (GLP1R^KO/KO islets; GLP1R-/-): 1138974 and 1525024 and 2200632 and 868278 and 1499758 and 2095767 and 1136530 and 1464030 and 649874 and 1541507 and 604319 and 865421
CTCF values of daLUXendin544 (GLP1R^KO/KO islets; GLP1RWT/WT): 3434876 and 3087793 and 4777725 and 2187512 and 1805461 and 1906480 and 1520223 and 2186271 and 2694391 and 5360897 and 5342379 and 1938584 and 1738950
reduction of labelling in GLP1R^KO/KO islets (GLP1R^KO/KO islets; versus wild-type islets): ~ 50%
selectivity for mouse GLP1R over GIPR compared to tirzepatide (mGIPR): approximately fourfold less selectivity

daLUXendin660+ (peptide)
Kd [1]: 6.46 nM
Kd [2]: 1.38 nM
Kd [3]: 6.46 nM
Kd [4]: 1.38 nM
Kd [5]: 12.2 nM and 10.7 nM and 14.1 nM
Kd [6]: 2.14 nM and 1.77 nM and 3.89 nM

daLUXendin660 (peptide)
Kd [1]: 8.7 nM
Kd [2]: 2.18 nM
Kd [5]: 10.2 nM and 4.22 nM and 7.41 nM

CC[C@H](C)[C@H](NC(=O)[C@H](CC(C)C)NC(=O)[C@H](Cc1c[nH]c2ccccc12)NC(=O)[C@H](CCC(N)=O)NC(=O)[C@@H](NC(=O)[C@H](Cc1ccccc1)NC(=O)[C@H](C)NC(=O)[C@H](CCCCNC(=O)COCCOCCNC(=O)COCCOCCNC(=O)CC[C@H](NC(=O)CCCCCCCCCCCCCCCCCCC(=O)O)C(=O)O)NC(=O)[C@H](CCC(N)=O)NC(=O)[C@H](C)NC(=O)[C@@H](NC(=O)[C@H](CCCCN)NC(=O)[C@H](CC(=O)O)NC(=O)[C@H](CC(C)C)NC(=O)C(C)(C)NC(=O)[C@@H](NC(=O)[C@H](CO)NC(=O)[C@H](Cc1ccc(O)cc1)NC(=O)[C@H](CC(=O)O)NC(=O)[C@H](CO)NC(=O)[C@@H](NC(=O)[C@H](Cc1ccccc1)NC(=O)[C@@H](NC(=O)CNC(=O)[C@H](CCC(=O)O)NC(=O)C(C)(C)NC(=O)[C@@H](N)Cc1ccc(O)cc1)[C@@H](C)O)[C@@H](C)O)[C@@H](C)CC)[C@@H](C)CC)C(C)C)C(=O)N[C@@H](C)C(=O)NCC(=O)NCC(=O)N1CCC[C@H]1C(=O)N[C@@H](CO)C(=O)N[C@@H](CO)C(=O)NCC(=O)N[C@@H](C)C(=O)N1CCC[C@H]1C(=O)N1CCC[C@H]1C(=O)N1CCC[C@H]1C(=O)N[C@@H](CSC1CC(=O)N(CCNC(=O)CCCCC[N+]2=C(C=CC=CC=C3N(C)c4ccccc4C3(C)C)C(C)(C)c3ccccc32)C1=O)C(N)=O (stereo partly drawn) [daLUXendin660+] (H-Y[Aib]EGTFTSDYSI[Aib]LDKIAQK([AEEA-AEEA-γGlu-C20 diacid])AFVQWLIAGGPSSGAPPPC(X1)-NH2)
Bmax best-fit (nM), hGIPR (Nluc–GIPR (hGIPR); Nluc-tagged hGIPR, NanoBRET saturation, n = 3 independent repeats): 0.02314 nM
Bmax (Nluc–GIPR (hGIPR); hGIPR, nonlin fit, One site -- Specific binding, best-fit value of pooled data): 0.02314
Bmax best-fit (nM), hGLP1R (Nluc–GLP1R (hGLP1R); Nluc-tagged hGLP1R, NanoBRET saturation, n = 3 independent repeats): 0.03361 nM
Bmax (Nluc–GLP1R (hGLP1R); hGLP1R, nonlin fit, One site -- Specific binding, best-fit value of pooled data): 0.03361
